According to US7445939B2, “Stable liquid membranes for liquid phase microextraction” (Varian, Inc., priority 2004, dated 2008):

Tests used:
[1] = Weights of fibers with liquid membranes as a function of time and storing condition; assay type: physicochemical
[2] = supported liquid membranes of WO 02/088672; cited from earlier work
[3] = Extraction ability and storage stability of supported liquid membranes on hollow fibers (in words); assay type: physicochemical; details: polypropylene fibers, after 30 days of storage at room temperature
Procedure: The liquid membrane was formed by dipping the hollow fiber into the organic solvent for 5 to 30 sec to allow the solvent to penetrate into the pores of the fiber. Then acceptor solution was introduced into the lumen of the fiber using a syringe. The acceptor solution was 10 mM HCl, having a pH of 2. Extraction ability was tested by immersing the hollow fibers with their supported liquid membranes into a sample vial containing 4 mL of a solution containing 5 basic drugs, at a pH of 12, with stirring, and allowing the analytes to equilibrate across the liquid membranes to the acceptor solution within (25 μl 10 mM HCl). After allowing the sample analytes sufficient time to reach equilibration with the acceptor solution, about 15 to 60 minutes, the acceptor solution was withdrawn from the hollow fibers, and the concentration of analytes was determined using capillary electrophoresis.
Experiments were performed using polypropylene and polysulfone hollow fibers, testing the effectiveness and stability of liquid membranes comprising fatty oils in the extraction of analytes from samples after storage of the fibers for 30 days prior to use. Supported liquid membranes were established on the hollow fibers using the procedures described in Example 1 above, but substituting the following oils for the organic solvents tested in Example 1: tributyrin, soya oil, or olive oil. […]

CCCCCCCCCCCCOC(C)=O [DDA, dodecyl acetate]
Weight (mg) of fibers ([1]; DDA table, closed container, Day 0): 42.40 mg
Weight (mg) of fibers ([1]; DDA table, closed container, Day 3): 42.14 mg
Weight (mg) of fibers ([1]; DDA table, closed container, Day 10): 42.12 mg
Weight (mg) of fibers ([1]; DDA table, open to the air, Day 0): 45.94 mg
Weight (mg) of fibers ([1]; DDA table, open to the air, Day 2): 43.92 mg
Weight (mg) of fibers ([1]; DDA table, open to the air, Day 5): 41.70 mg

CCCCCCCCCCCCCC(=O)OC(C)=O [MA, myristoyl acetate]
Weight (mg) of fibers ([1]; MA table, closed container, Day 0): 38.76 mg
Weight (mg) of fibers ([1]; MA table, closed container, Day 4): 38.72 mg
Weight (mg) of fibers ([1]; MA table, open to the air, Day 0): 41.36 mg
Weight (mg) of fibers ([1]; MA table, open to the air, Day 4): 40.90 mg

CCCCCCCCOc1ccccc1[N+](=O)[O-] [NPOE, nitropheyloctyl ether]
Membrane lifetime [2]: 10 to 20 days

CCCC(=O)OCC(COC(=O)CCC)OC(=O)CCC [tributyrin]
Extraction performance [3]: extracted analytes
